Results published in ChEMBL document CHEMBL1201862, “PubChem BioAssay data set” (2004).
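96-well plates; 48 h exposure; 5 concentrations. Endpoints by linear interpolation between flanking doses. Not reached: highest tested concentration assigned. GI50 marks 50% less growth.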 Activity calls are given as the source filed them. Rule as the data show it: active = GI50 up to about 1.1 µM and inactive = higher.

Key:
Experiment in all cases: NCI anticancer screen, dose series, 48 h
786-0 = system: 786-0
A498 = system: A498
A549 = system: A549
ACHN = system: ACHN
BT-549 = system: BT-549
CAKI-1 = system: CAKI-1
CCRF-CEM = system: CCRF-CEM
COLO 205 = system: COLO 205
DU-145 = system: DU-145
EKVX = system: EKVX
HCC 2998 = system: HCC 2998
HCT-116 = system: HCT-116
HCT-15 = system: HCT-15
HL-60 = system: HL-60
HOP-62 = system: HOP-62
HOP-92 = system: HOP-92
HT-29 = system: HT-29
Hs-578T = system: Hs-578T
IGROV-1 = system: IGROV-1
K562 = system: K562
KM12 = system: KM12
LOX IMVI = system: LOX IMVI
M14 = system: M14
MCF7 = system: MCF7
MDA-MB-231 = system: MDA-MB-231
MDA-MB-435 = system: MDA-MB-435
MDA-N = system: MDA-N
MOLT-4 = system: MOLT-4
NCI-H226 = system: NCI-H226
NCI-H23 = system: NCI-H23
NCI-H460 = system: NCI-H460
NCI-H522 = system: NCI-H522
NCI/ADR-RES = system: NCI/ADR-RES
OVCAR-3 = system: OVCAR-3
OVCAR-4 = system: OVCAR-4
OVCAR-5 = system: OVCAR-5
OVCAR-8 = system: OVCAR-8
PC-3 = system: PC-3
RPMI-8226 = system: RPMI-8226
RXF 393 = system: RXF 393
SF-268 = system: SF-268
SF-295 = system: SF-295
SF-539 = system: SF-539
SK-MEL-28 = system: SK-MEL-28
SK-MEL-2 = system: SK-MEL-2
SK-MEL-5 = system: SK-MEL-5
SK-OV-3 = system: SK-OV-3
SN12C = system: SN12C
SNB-19 = system: SNB-19
SNB-75 = system: SNB-75
SR = system: SR
SW-620 = system: SW-620
T47D = system: T47D
TK-10 = system: TK-10
U-251 = system: U-251
UACC-257 = system: UACC-257
UACC-62 = system: UACC-62
UO-31 = system: UO-31

Measured: GI50

Nc1nc(N)c(N=O)c(OCC2CCCCC2)n1
5.5 µM: HCT-15
inactive: 786-0 11.6 µM | A498 18.1 µM | A549 17.8 µM | BT-549 7.82 µM | CAKI-1 7.55 µM | CCRF-CEM 5.36 µM | COLO 205 12.3 µM | DU-145 7.45 µM | EKVX 20.5 µM | HCC 2998 14.9 µM | HCT-116 9.12 µM | HL-60 14.7 µM | HOP-62 14.6 µM | HOP-92 7.83 µM | HT-29 9.64 µM | Hs-578T 6.73 µM | IGROV-1 3.23 µM | K562 21.9 µM | KM12 18.7 µM | LOX IMVI 5.53 µM | M14 8.47 µM | MCF7 4.3 µM | MDA-MB-231 5.02 µM | MDA-MB-435 14.3 µM | MDA-N 11 µM | MOLT-4 6.64 µM | NCI-H226 9.4 µM | NCI-H23 12.2 µM | NCI-H460 6.17 µM | NCI-H522 5.96 µM | NCI/ADR-RES 18.9 µM | OVCAR-3 8.47 µM | OVCAR-4 10 µM | OVCAR-5 9.71 µM | OVCAR-8 15 µM | PC-3 6.41 µM | RPMI-8226 6.52 µM | RXF 393 7.1 µM | SF-268 8.49 µM | SF-295 13 µM | SF-539 8.91 µM | SK-MEL-28 15.7 µM | SK-MEL-2 11 µM | SK-MEL-5 9.73 µM | SK-OV-3 19 µM | SN12C 5.15 µM | SNB-19 26.8 µM | SNB-75 5.01 µM | SR 4.76 µM | SW-620 24 µM | T47D 5.57 µM | TK-10 6.64 µM | U-251 15.7 µM | UACC-257 9.02 µM | UACC-62 6.98 µM | UO-31 5.16 µM
active: ACHN 1.06 µM
